According to patent US20120165304A1, “6,7,8,9-Tetrahydro-5H-1,4,7,10a-tetraaza-cyclohept[f]indene derivatives, pharmaceutical compositions containing these compounds, their use and processes for preparing them” (BOEHRINGER INGELHEIM INTERNATIONAL GMBH, priority 2008, published 2012):

target: human 5-HT2C receptor (Homo sapiens, UniProt P28335, I156V/I160V/N158S); assay: cell-based
Sequence (P28335 33-458 I156V/N158S/I160V limits assumed): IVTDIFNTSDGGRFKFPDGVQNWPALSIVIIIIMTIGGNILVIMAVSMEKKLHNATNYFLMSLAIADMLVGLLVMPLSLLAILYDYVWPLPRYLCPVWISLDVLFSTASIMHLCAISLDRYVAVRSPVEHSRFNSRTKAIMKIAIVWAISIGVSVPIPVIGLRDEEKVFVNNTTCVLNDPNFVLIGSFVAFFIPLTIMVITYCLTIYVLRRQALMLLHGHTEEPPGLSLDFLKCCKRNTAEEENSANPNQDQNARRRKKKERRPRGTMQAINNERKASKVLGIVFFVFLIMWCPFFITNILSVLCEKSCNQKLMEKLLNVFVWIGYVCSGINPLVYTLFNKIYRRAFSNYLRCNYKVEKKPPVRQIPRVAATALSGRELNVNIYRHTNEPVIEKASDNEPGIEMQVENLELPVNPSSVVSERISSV

Row | SMILES | EC50
1 | Cn1c(C2CN(c3c4c(nc5ccnn35)CCNCC4)C2)nc2cc(F)ccc21 [Example 34.38] | 290 nM
2 | O=C(C1CN(c2c3c(nc4c(Br)cnn24)CCNCC3)C1)N1CCc2ccccc2C1 [Example 31.136] | 78 nM
3 | CC(=O)N1CCN(C(=O)C2CN(c3c4c(nc5ccnn35)CCN(C)CC4)C2)CC1 [Example 36.52] | 181 nM
4 | CN(Cc1ccc(F)cc1)C(=O)C1CN(c2c3c(nc4ccnn24)CCNCC3)C1 [Example 31.96] | 26 nM
5 | c1nn2c(N3CCC3)c3c(nc2c1CCC1CC1)CCNCC3 [Example 6.1] | 365 nM
6 | CN1CCc2nc3ccnn3c(N3CC(C(=O)N4CCN(C(=O)C5CC5)CC4)C3)c2CC1 [Example 36.43] | 264 nM
7 | O=C(NCC1CCCCO1)C1CN(c2c3c(nc4ccnn24)CCNCC3)C1 (stereo not shown) [Example 37.55] | 66 nM
8 | O=C(CC1CN(c2c3c(nc4ccnn24)CCNCC3)C1)N1CCc2ccccc21 [Example 33.1] | 19 nM
9 | c1ccc(OCC2CN(c3c4c(nc5ccnn35)CCNCC4)C2)cc1 [Example 15.17] | 31 nM
10 | Fc1ccc(OC2CN(c3c4c(nc5ccnn35)CCNCC4)C2)cc1F [Example 35.55] | 115 nM
11 | c1cc2nc3c(c(N4CCCC4)n2n1)CCNCC3 [Example 7.1] | 764 nM
12 | O=C(C1CN(c2c3c(nc4ccnn24)CCNCC3)C1)N1CCc2c1ccc(F)c2F [Example 31.155] | 52 nM
13 | CN(Cc1ccn(C)n1)C(=O)C1CN(c2c3c(nc4ccnn24)CCNCC3)C1 [Example 31.54] | 107 nM
14 | O=C(NCCC(F)(F)F)C1CN(c2c3c(nc4ccnn24)CCNCC3)C1 [Example 37.63] | 84 nM
15 | O=C1CCCN1c1ccc(OC2CN(c3c4c(nc5ccnn35)CCNCC4)C2)c(Cl)c1 [Example 35.26] | 115 nM
16 | O=C(C1CC1)N1CCN(C(=O)C2CN(c3c4c(nc5ccnn35)CCNCC4)C2)CC1 [Example 37.56] | 10 nM
17 | Clc1ccccc1OC1CN(c2c3c(nc4ccnn24)CCNCC3)C1 [Example 35.3] | 98 nM
18 | CC1CN(C(=O)C2CN(c3c4c(nc5ccnn35)CCNCC4)C2)CCO1 (stereo not shown) [Example 31.34] | 91 nM
19 | CCn1c(C2CN(c3c4c(nc5ccnn35)CCNCC4)C2)nc2ccccc21 [Example 34.2] | 150 nM
20 | CC(C)CCNC(=O)C1CN(c2c3c(nc4ccnn24)CCNCC3)C1 [Example 37.82] | 33 nM
21 | CC(C)(C)CNC(=O)C1CN(c2c3c(nc4ccnn24)CCNCC3)C1 [Example 37.76] | 65 nM
22 | COc1ccc(OC2CN(c3c4c(nc5ccnn35)CCNCC4)C2)c(Cl)c1 [Example 35.19] | 87 nM
23 | O=C(C1CN(c2c3c(nc4ccnn24)CCNCC3)C1)N1CC=C(c2ccccc2)CC1 [Example 31.181] | 84 nM
24 | O=C(C1CN(c2c3c(nc4ccnn24)CCNCC3)C1)N1CCC(Oc2ccccc2)CC1 [Example 31.154] | 40 nM
25 | C[C@H](c1ccccc1)N(C)C(=O)C1CN(c2c3c(nc4ccnn24)CCNCC3)C1 [Example 31.90] | 465 nM
26 | c1cc2nc3c(c(N4CC(OC5CCCC5)C4)n2n1)CCNCC3 [Example 20.5] | 358 nM
27 | O=C(C1CN(c2c3c(nc4ccnn24)CCNCC3)C1)N1CCCC(F)C1 (stereo not shown) [Example 31.193] | 64 nM

Row | SMILES | EC50
28 | FC(F)(F)Oc1ccccc1OC1CN(c2c3c(nc4ccnn24)CCNCC3)C1 [Example 35.18] | 636 nM
29 | Fc1ccccc1OC1CN(c2c3c(nc4ccnn24)CCNCC3)C1 [Example 1.8] | 5 nM
30 | CN(C(=O)C1CN(c2c3c(nc4ccnn24)CCNCC3)C1)C1CC1 [Example 31.10] | 1670 nM
31 | Cc1ccc(OC2CN(c3c4c(nc5ccnn35)CCNCC4)C2)cn1 [Example 35.52] | 147 nM
32 | Cc1cnn2c(N3CC(C(=O)N4CCCC(F)(F)C4)C3)c3c(nc12)CCNCC3 [Example 31.238] | 13 nM
33 | OC1CCN(c2c3c(nc4ccnn24)CCNCC3)CC1 [Example 1.36] | 1850 nM
34 | Cc1cccc(OC2CN(c3c4c(nc5ccnn35)CCNCC4)C2)c1 [Example 35.51] | 126 nM
35 | N#CC1CN(c2c3c(nc4ccnn24)CCNCC3)C1 [Example 22, 1-(6,7,8,9-Tetrahydro-5H-1,4,7,10a-tetraaza-cyclohepta[f]inden-10-yl)-azetidine-3-carbonitrile] | 1020 nM
36 | CC(C)N(C)C(=O)C1CN(c2c3c(nc4ccnn24)CCNCC3)C1 [Example 31.6] | 5940 nM
37 | CN1CCc2nc3ccnn3c(N3CC(C(=O)NC4CC(C)(C)NC(C)(C)C4)C3)c2CC1 [Example 36.9] | 379 nM
38 | Clc1cccc(OC2CN(c3c4c(nc5ccnn35)CCNCC4)C2)c1 [Example 35.50] | 208 nM
39 | Cc1cnn2c(N3CC(C(=O)N4CCc5cc(F)ccc54)C3)c3c(nc12)CCNCC3 [Example 31.245] | 26 nM
40 | Cc1cnn2c(N3CCC3)c3c(nc12)CCNCC3 [Example 27, 10-Azetidin-1-yl-3-methyl-6,7,8,9-tetrahydro-5H-1,4,7,10a-tetraaza-cyclohepta[f]indene] | 49 nM
41 | COc1ccc(OC2CN(c3c4c(nc5c(C)cnn35)CCNCC4)C2)cc1 [Example 27.2] | 55 nM
42 | O=C(C1CN(c2c3c(nc4ccnn24)CCNCC3)C1)N1CCC(F)CC1 [Example 31.206] | 146 nM
43 | COc1cccc(F)c1OCC1CN(c2c3c(nc4ccnn24)CCNCC3)C1 [Example 15.23] | 47 nM
44 | c1cc2nc3c(c(N4CCCCCC4)n2n1)CCNCC3 [Example 7.5] | 592 nM
45 | O=C(NCc1ccccc1)C1CCCN(c2c3c(nc4ccnn24)CCNCC3)C1 (stereo not shown) [Example 1.22] | 1410 nM
46 | CC1CN(C(=O)C2CN(c3c4c(nc5ccnn35)CCNCC4)C2)CC(C)N1C (stereo not shown) [Example 37.4] | 4 nM
47 | COc1ccc(N(C)C(=O)C2CN(c3c4c(nc5ccnn35)CCNCC4)C2)cc1 [Example 31.31] | 2150 nM
48 | O=C(C1CN(c2c3c(nc4ccnn24)CCNCC3)C1)N1CCN(C2CC2)CC1 [Example 37.32] | 22 nM
49 | O=C(C1CN(c2c3c(nc4ccnn24)CCNCC3)C1)N1CCC(c2ccccc2F)CC1 [Example 31.113] | 27 nM
50 | COc1ccc(C(O)C2CN(c3c4c(nc5ccnn35)CCNCC4)C2)cc1 (stereo not shown) [Example 19, (4-Methoxy-phenyl)-[1-(6,7,8,9-tetrahydro-5H-1,4,7,10a-tetraaza-cyclohepta[f]inden-10-yl)-azetidin-3-yl]-methanol] | 139 nM
51 | COc1ccccc1C1CCN(c2c3c(nc4ccnn24)CCNCC3)C1 (stereo not shown) [Example 1.21] | 1150 nM
52 | CCN1CCN(C(=O)C2CN(c3c4c(nc5ccnn35)CCNCC4)C2)CC1 [Example 37.1] | 3 nM
53 | COC[C@H]1CCCN1c1c2c(nc3ccnn13)CCNCC2 [Example 1.12] | 507 nM
54 | O=C(C1CN(c2c3c(nc4ccnn24)CCNCC3)C1)N1CCC(c2ccc(F)cc2)CC1 [Example 31.110] | 30 nM

Row | SMILES | EC50
55 | CCc1cnn2c(N3CC(Oc4ccc(OC)cc4)C3)c3c(nc12)CCNCC3 [Example 25.1] | 77 nM
56 | Fc1ccc2[nH]c(C3CN(c4c5c(nc6ccnn46)CCNCC5)C3)nc2c1 [Example 34.14] | 369 nM
57 | Cc1ccc(Cl)c(OC2CN(c3c4c(nc5ccnn35)CCNCC4)C2)c1 [Example 35.29] | 114 nM
58 | O=C(C1CN(c2c3c(nc4ccnn24)CCNCC3)C1)N1CCC2(CCCc3ccccc32)C1 (stereo not shown) [Example 31.222] | 96 nM
59 | CN(C)CCCNC(=O)C1CN(c2c3c(nc4ccnn24)CCN(C)CC3)C1 [Example 36.53] | 87 nM
60 | Cc1cnn2c(N3CC(C(=O)N4CCC5(CCCCC5)CC4)C3)c3c(nc12)CCNCC3 [Example 31.235] | 84 nM
61 | CN(C)CCNC(=O)C1CN(c2c3c(nc4ccnn24)CCNCC3)C1 [Example 37.74] | 29 nM
62 | c1ccc2oc(C3CN(c4c5c(nc6ccnn46)CCNCC5)C3)nc2c1 [Example 14, 10-(3-Benzooxazol-2-yl-azetidin-1-yl)-6,7,8,9-tetrahydro-5H-1,4,7,10a-tetraaza-cyclohepta[f]indene] | 678 nM
63 | O=C(NCC(F)(F)F)C1CN(c2c3c(nc4ccnn24)CCNCC3)C1 [Example 37.94] | 228 nM
64 | CC1CCCC(NC(=O)C2CN(c3c4c(nc5ccnn35)CCNCC4)C2)C1 (stereo not shown) [Example 37.70] | 69 nM
65 | FC1(F)CN(c2c3c(nc4ccnn24)CCNCC3)C1 [Example 1.4] | 2420 nM
66 | O=C(C1CN(c2c3c(nc4ccnn24)CCNCC3)C1)N1CCC(c2ccncc2)CC1 [Example 31.182] | 9 nM
67 | c1ccc(CC2CN(c3c4c(nc5ccnn35)CCNCC4)C2)cc1 [Example 1.15] | 10 nM
68 | CN1CCC2(CCN(C(=O)C3CN(c4c5c(nc6ccnn46)CCNCC5)C3)CC2)C1=O [Example 31.151] | 319 nM
69 | CC1CNCCc2c1nc1ccnn1c2N1CCCCC1 (stereo not shown) [Example 3, 5-Methyl-10-piperidin-1-yl-6,7,8,9-tetrahydro-5H-1,4,7,10a-tetraaza-cyclohepta[f]indene] | 1810 nM
70 | CN(Cc1ccc(Cl)c(Cl)c1)C(=O)C1CCCN(c2c3c(nc4ccnn24)CCNCC3)C1 (stereo not shown) [Example 1.57] | 2960 nM
71 | c1cc2nc3c(c(N4CCOCC4)n2n1)CCNCC3 [Example 7, 10-Morpholin-4-yl-6,7,8,9-tetrahydro-5H-1,4,7,10a-tetraaza-cyclohepta[f]indene] | 2580 nM
72 | CC1Cc2ccccc2N1C(=O)C1CN(c2c3c(nc4ccnn24)CCNCC3)C1 (stereo not shown) [Example 31.234] | 380 nM
73 | Cc1cc(Cl)ccc1OC1CN(c2c3c(nc4ccnn24)CCNCC3)C1 [Example 35.20] | 326 nM
74 | CN(Cc1ccccn1)C(=O)C1CN(c2c3c(nc4ccnn24)CCNCC3)C1 [Example 31.29] | 87 nM
75 | O=C(C1CN(c2c3c(nc4ccnn24)CCNCC3)C1)N1CC[C@H](c2ccccc2)C1 [Example 31.224] | 45 nM
76 | O=C(C1CN(c2c3c(nc4ccnn24)CCNCC3)C1)N1CCCCC1c1cccnc1 (stereo not shown) [Example 31.187] | 1010 nM
77 | Fc1cc(Cl)ccc1OC1CN(c2c3c(nc4ccnn24)CCNCC3)C1 [Example 35.22] | 82 nM
78 | O=C(C1CN(c2c3c(nc4ccnn24)CCNCC3)C1)N1CCC(c2ccccc2)C1 (stereo not shown) [Example 31.98] | 45 nM
79 | O=C(C1CN(c2c3c(nc4ccnn24)CCNCC3)C1)N1CC=CCC1 [Example 31.178] | 109 nM
